Assay results from paper PMC6792352, “Limited Chemical Structural Diversity Found to Modulate Thyroid Hormone Receptor in the Tox21 Chemical Library” (Environmental Health Perspectives, 2019).
Structures can show the parent of a compound that is named as a salt.

Test: in vitro
Details: rat, gh3-tre-luc cells, AC50 (uM) modified / 1000

Compound	CC50 at 24 h [µM]
Cc1c(C2(c3cc(Br)c(O)c(Br)c3C)OS(=O)(=O)c3ccccc32)cc(Br)c(O)c1Br [Bromcresol green]	45.4
CCN(CCCc1ccccc1)CCCc1ccccc1 [Alverine citrate]	> 20
CN(C)CCN(Cc1ccccc1)c1ccccn1 [Tripelennamine citrate]	> 50
Cn1sccc1=O [2-Methyl-4-isothiazolin-3-one hydrochloride]	30.8
C[C@@]1(c2ccc(Oc3ccccc3)cc2)OC(=O)N(Nc2ccccc2)C1=O (racemic) [Famoxadone]	39
C[C@@H]1[C@H](O)[C@@H](C)/C=C/C=C/CC/C=C/C=C/C=C/C=C/[C@H](O[C@@H]2O[C@H](C)[C@@H](O)[C@H](N)[C@@H]2O)C[C@@H]2O[C@](O)(C[C@@H](O)[C@H](O)CC[C@@H](O)C[C@@H](O)C[C@@H](O)CC(=O)O[C@H]1C)C[C@H](O)[C@H]2C(=O)O [Nystatin]	> 50
CCCC1CCCC(=O)O1 (centres unmarked) [delta-Octanolactone]	> 90
CS(=O)(=O)OC[C@H](O)[C@@H](O)COS(C)(=O)=O [Treosulfan]	> 50
CCCCCC(O)/C=C/C=O (centres unmarked) [(2E)-4-Hydroxy-2-nonenal]	> 50
CCCCCCCCCC(=O)O[C@H]1CC[C@H]2[C@@H]3CCC4=CC(=O)CC[C@@H]4[C@H]3CC[C@]12C [Nandrolone decanoate]	> 50
CCCCCCCCCCCCCCCCOS(=O)(=O)O [Sodium hexyldecyl sulfate]	50.6
O=C(O)COc1ccccc1/C=N/NC(=O)c1ccncc1 [Aconiazide]	> 50
NC(=O)CI [Iodoacetamide]	> 90
CCCCCOC(=O)CCC [Pentyl butyrate]	> 90
CCCCOc1ccc(CC(=O)NO)cc1 [Bufexamac]	> 20
CN1[C@@H]2CC[C@H]1C[C@@H](OC(=O)c1c[nH]c3ccccc13)C2 [Tropisetron]	23.8
COC(=O)c1ccc(C(=O)OC)cc1 [Dimethyl terephthalate]	> 90
O=C1CC[C@@]2(O)[C@H]3Cc4ccc(O)c5c4[C@@]2(CCN3CC2CC2)[C@H]1O5 [Naltrexone]	> 50
CC(Oc1ccc(Oc2ncc(C(F)(F)F)cc2Cl)cc1)C(=O)O (centres unmarked) [Haloxyfop]	> 90
C=CC[C@]1(O)CC[C@H]2[C@@H]3CCC4=CCCC[C@@H]4[C@H]3CC[C@@]21C [Allylestrenol]	41.6
CCCC[n+]1ccccc1 [1-Butylpyridinium hexafluorophosphate]	> 90

Compound	CC50 at 24 h [µM]
O=C(Cl)CCl [Chloroacetyl chloride]	> 90
CCCCOC(=O)C(C)OC(=O)CCC (centres unmarked) [1-Butoxy-1-oxopropan-2-yl butanoate]	> 90
CCCCCCCCCCCCCCCCCCCl [Octadecyl chloride]	> 5
O=C(O)c1cccc(Cl)n1 [6-Chloro-2-picolinic acid]	> 90
O=C(c1ccccc1)c1ccc(O)cc1 [4-Hydroxybenzophenone]	> 90
CS(=O)(=O)c1ccc([C@@H](O)[C@@H](COC(=O)CN)NC(=O)C(Cl)Cl)cc1 [Thiamphenicol glycinate hydrochloride]	> 50
CC(=O)CC(C)=O [2,4-Pentanedione]	> 100
COc1ccc(C(CN(C)C)C2(O)CCCCC2)cc1 (centres unmarked) [Venlafaxine hydrochloride]	> 90
COc1cc(CCN)cc(OC)c1OC [Mescaline hydrochloride]	> 100
C#C[C@]1(O)CC[C@H]2[C@@H]3CCC4=CC(=O)CC[C@@H]4[C@H]3CC[C@@]21CC [Levonorgestrel]	> 90
CN1CC[C@@]23CCCC[C@@H]2[C@@H]1Cc1ccc(O)cc13 [Dextrorphan tartrate]	> 50
COc1ccc2nc(NC(=O)Nc3ccccc3)sc2c1 [Frentizole]	> 50
CC(CCc1ccc(O)cc1)NCCc1ccc(O)c(O)c1 (centres unmarked) [Dobutamine]	> 50
C(CCOCC1CO1)COCC1CO1 (centres unmarked) [1,4-Butanediol diglycidyl ether]	> 90
CCOC(=O)c1cccc(N)c1 [Ethyl 3-aminobenzoate methanesulfonic acid salt]	> 50
CCCCCCCCCCOC(C)=O [Decyl acetate]	> 90
CC(C)(CO)[C@@H](O)C(=O)NCCCC(=O)O [Calcium hopantenate]	> 50
O=c1[nH]c(=O)c2ccccc2o1 [Carsalam]	> 50
CN1C(=O)CN2CCc3ccccc3C2c2cc(Cl)ccc21 (centres unmarked) [Clazolam]	> 50
COc1cc2c3cc1Oc1cc(ccc1O)C[C@@H]1c4c(cc(OC)c(O)c4Oc4ccc(cc4)C[C@@H]3N(C)CC2)CC[N+]1(C)C [(+)-Tubocurarine chloride hydrochloride]	> 50
CC(=O)N[C@@H](Cc1ccc(O)cc1)C(=O)O [N-Acetyl-L-tyrosine]	> 50

Compound	CC50 at 24 h [µM]
O=S(=O)(O)CO [Sodium hydroxymethanesulfonate]	> 90
Oc1ccc(C2CNCCc3c2cc(O)c(O)c3Cl)cc1 (centres unmarked) [Fenoldopam]	> 50
c1cc(-c2ccncc2)ccn1 [4,4'-Bipyridine]	> 90
CCCCCCCCCCCCCCCC[N+](C)(C)C [Hexadecyl trimethyl ammonium chloride]	12.8
CC(=O)OCC(=O)Nc1cc(C#N)cc(NC(=O)COC(C)=O)c1Cl [Acreozast]	> 50
CC(=O)c1cc(C)oc1C [3-Acetyl-2,5-dimethylfuran]	> 90
O=C(NC(=O)c1c(F)cccc1F)Nc1ccc(Cl)c(Oc2ncc(C(F)(F)F)cc2Cl)c1 [Fluazuron]	> 50
COC(F)(F)C(Cl)Cl [Methoxyflurane]	> 50
CC[C@H]1OC(=O)C[C@@H](O)[C@H](C)[C@@H](O[C@@H]2O[C@H](C)[C@@H](O[C@H]3C[C@@](C)(O)[C@@H](O)[C@H](C)O3)[C@H](N(C)C)[C@H]2O)[C@@H](CC=O)C[C@@H](C)C(=O)/C=C/C(C)=C/[C@@H]1CO[C@@H]1O[C@H](C)[C@@H](O)[C@@H](OC)[C@H]1OC [Tylosin tartrate]	> 50
CC(=O)OCCOC(C)=O [1,2-Ethanediol diacetate]	> 90
CCN(CC)c1ccc2c(C)cc(=O)oc2c1 [7-Diethylamino-4-methylcoumarin]	> 90
C=CCCCCCCCCC(=O)O [10-Undecenoic acid]	> 90
O=[N+]([O-])c1cccc2cccnc12 [8-Nitroquinoline]	> 90
C1C[C@@H]2[C@H]3CC[C@H](C3)[C@@H]2C1 [Octahydro-exo-4,7-methano-1H-indene]	> 90
CCOC(=O)CC(=O)c1ccccc1 [Ethyl benzoylacetate]	> 90
c1coc(Cn2cccc2)c1 [1-Furfurylpyrrole]	> 90
CCCc1ccc(OC)cc1 [4-Propylanisole]	> 90
O=[N+]([O-])c1ccc2[nH]ncc2c1 [5-Nitroindazole]	> 90
C/C=C/C=C/C=O [(2E,4E)-2,4-Hexadienal]	> 90
Cc1cc(O)c(C(C)C)cc1Cl [6-Chlorothymol]	66.1

Same assay, conditions: rat, gh3-tre-luc cells, AC50 (uM) modified / 1000, Tox21_110001=Tox21_111116; viability, 1 nM T3 present, 24 h

Compound	CC50 at 24 h [µM]
Cc1cc(O)ccc1Cl [4-Chloro-3-methylphenol]	> 50

Same assay, conditions: rat, gh3-tre-luc cells, AC50 (uM) modified / 1000, Tox21_110001=Tox21_201293; viability, 1 nM T3 present, 24 h

Compound	CC50 at 24 h [µM]
Cc1cc(O)ccc1Cl [4-Chloro-3-methylphenol]	> 90

Same assay, conditions: rat, gh3-tre-luc cells, AC50 (uM) modified / 1000, Tox21_110001=Tox21_300910; viability, 1 nM T3 present, 24 h

Compound	CC50 at 24 h [µM]
COP(=S)(OC)Oc1cc(Cl)c(I)cc1Cl [Iodenphos]	> 90
